The text below walks through data of patent US11944605B2, “Rapamycin analogs and uses thereof” (Janssen Pharmaceutica NV, priority 2018, dated 2024).

Each structure is given as a SMILES string. ≈ marks a conversion by molar mass, not a printed value.

The test system of series [1] is pS6K1 (p-p70 S6 Kinase (Thr389)) in MCF-7 cells. Briefly: AlphaLISA Ultra pS6K1 Assay. It is filed as cell-based. The conditions noted are these: Homo sapiens, 1.5 h; MCF7 cells, 90 min. The method in brief: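 AlphaLISA Ultra read-out (acceptor beads 2 h, then donor beads 2 h) on thawed lysates of MCF-7 cells. Cells had 20–24 h after seeding and a 2 h medium change, then 90 min of compound exposure at 0.5% final DMSO, with lysates stored at −80 °C.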

In series [2] the test system is pAKT (p-Akt 1/2/3 (Ser473)) in MCF-7 cells. Briefly: AlphaLISA Ultra pAKT Assay. It is filed as cell-based. The conditions noted are these: Homo sapiens, 1.5 h; MCF7 cells, 90 min. How it is done: AlphaLISA Ultra pAKT Assay
1. MCF-7 cells in Corning 3701 plate and incubate for 20˜24 hour.
16,000˜20,000 cells will be seeded in 36 μL medium per well.
2. Change the culture medium with fresh medium and incubate for another 90 minutes.
3. […]
4. Aspirate […] by HAMILTON, 10 μL rest per well.
5. Add 10 μL 2× lysis buffer using HAMILTON; total volume in wells is 20 μL. Allow cells to shake for 30 min. Cover plate by plastic foil and store plate at −80° C. up to analysis.
6. Thaw cell lysate at RT and transfer 10 ul lysate to assay plate (Optiplate-384).
7. Add 5 μL acceptor beads into assay plate and incubation for 2 hours
8. Add 5 μL donor beads and incubation for 2 hours
9. Count the plate by EnSpire Multimode Plate Reader
(Alpha assays give light when donor and acceptor beads are brought close together.)

Series [3] concerns mTORC1 over mTORC2. Briefly: mTORC1 selectivity over mTORC2 at 24 hrs (Western blot based pS6K1 and pAKT assay). It is filed as cell-based. In general terms: Immunoblotting shows a protein as a band on a membrane.
Series [4] can be described thus: Solubility in 100 mM phosphate buffer (pH 7.4). The note with it: pH 7.4, aqueous buffer. It is filed as physicochemical. An excerpt:
The compound numbers correspond to the compound numbers in Table 1.

Series [5] relates to mTORC1 pathway (pS6K1 T389) in PC3 cells. Briefly: Western blot, mTORC1 pathway (pS6K1) in PC3 cells. It is filed as cell-based. The conditions noted are these: PC3 cells, 24 hours. As for the experimental part:
(§1) Western Blot Based pS6K1 and pAKT Assay at 24 and 48 Hour Timepoints
(§2) 1. Seed six well plate with 500,000 PC3 cells per well and incubate for 20˜24 hour.
(§3) 2. Add compounds into the cell plate. Incubate for 24 to 48 hours.
(§4) 4. Plate is placed on ice and the media is removed via aspiration. The wells are washed with 1 mL of 1× PBS and then fully aspirated.
(§5) 5. 110 μL of 1% Triton Lysis Buffer is added and each well is scraped vigorously.
(§6) 6. Cell homogenates are transferred to 1.5 mL eppendorf tubes on ice and spun down at 4° C. for 10 minutes at 10,000 rpm.
(§7) 9. The membranes were washed 3× with TBS-T with a 5 minute incubation between each wash then incubated with secondary antibody (LiCor IRDye 800 Donkey Anti Rabbit) for at least 30 minutes.
(§8) 10. The membranes were washed 3× with TBS-T with a 5 minute incubation between each wash.
(§9) 11. The gels were then incubated for 5 minutes with PBS at room temperature then imaged using a Li-Cor.
(§10) The methods employed were substantially similar to those described above. Compounds were evaluated in PC3 cells, Jurkat cells, wild-type mouse embryotic fibroblast (MEF) cells, tuberous sclerosis 2 (TSC2) negative (TSC −/−) MEF cells, and tuberous sclerosis 2 (TSC2) positive (TSC +/+) MEF cells. Cells were incubated with compounds of the present invention for various time periods (e.g., 5 minutes, 15 minutes, 30 minutes, 90 minutes, 24 hours, or 48 hours), and evaluated according to known methodologies, such as those herein described.

Series [6] deals with mTORC2 pathway (Akt phosphorylation) in PC3 cells. Briefly: Western blot, mTORC2 pathway (pAkt) in PC3 cells. It is filed as cell-based. The note with it: 24 hours. As for the experimental part:
as §1, §2, §3, §4, §5, §6, §7, §8, §9, §10

Series [7] has as its system 4E-BP1 phosphorylation in PC3 cells. Briefly: Western blot, 4E-BP1 phosphorylation in PC3 cells. It is filed as cell-based. The conditions noted are these: 24 hours.

As a reminder, the IC50 is the concentration needed to halve the response being measured. A lower IC50 goes with higher potency. One may read the solubility as the dissolved amount per volume that the medium holds. As to `CO[C@@H]1C[C@H](C[C@@H](C)[C@@H]2CC(=O)[C@H](C)/C=C(\C)[C@@H](O)[C@@H](OC)C(=O)[C@H](C)C[C@H](C)/C=C/C=C/C=C(\C)[C@H](OCCOCCO)C[C@@H]3CC[C@@H](C)[C@@](O)(O3)C(=O)C(=O)N3CCCC[C@H]3C(=O)O2)CC[C@H]1O` [I-19], the IC50 in series [1] was less than 0.1 nM; in series [2], not below 100 nM. Besides, the “mTORC1 selective @ 24 hrs” value in series [3] was “YES”. For the same compound, the “selectivity for mTORC1 over mTORC2 as measured by the impact on pAKT” value in series [3] (extended periods of time (e.g., 24 hours)) was “marked selectivity”. For the same compound, in series [4], the solubility was in the range of 30 to 60 µM (≈ 29.6 to 59.3 µg/mL).
Consider `COCCOCCOCCOC1C[C@@H]2CC[C@@H](C)[C@@](O)(O2)C(=O)C(=O)N2CCCC[C@H]2C(=O)O[C@H]([C@H](C)C[C@@H]2CC[C@@H](O)[C@H](OC)C2)CC(=O)[C@H](C)/C=C(\C)[C@@H](O)[C@@H](OC)C(=O)[C@H](C)C[C@H](C)/C=C/C=C/C=C/1C` (stereo partly drawn) [I-27, (22E,24E,26E,27E,35R,36S,37R,38R,39S,42S,44S,46R,47R,56R)-46,56-dihydroxy-44-[(1R)-2-[(1S, 2R,3R)-3-hydroxy-2-methoxy-cyclohexyl]-1-methyl-ethyl]-47-methoxy-43-[2-[2-(2-methoxyethoxy)ethoxy]ethoxy]-35,36,37,38,48,49-hexamethyl-66,67-dioxa-57-azatricyclohexatriaconta-22, 24,26(48),27(49)-tetraene-50,51,52,53,54-pentone], for which the IC50 in series [1] is 0.1 to 1 nM; in series [2], not below 100 nM. Besides, the “mTORC1 selective @ 24 hrs” value in series [3] is on record as “YES”. The compound also registered a solubility in series [4] of 30 to 60 µM (≈ 31.4 to 62.8 µg/mL).
With `CO[C@@H]1C[C@H](C[C@@H](C)[C@@H]2CC(=O)[C@H](C)/C=C(\C)[C@@H](O)[C@@H](OC)C(=O)[C@H](C)C[C@H](C)/C=C/C=C/C=C(\C)C(OCC(CO)CO)C[C@@H]3CC[C@@H](C)[C@@](O)(O3)C(=O)C(=O)N3CCCC[C@H]3C(=O)O2)CC[C@H]1O` (stereo partly drawn) [I-31, (21E,23E,25E,26E,31R,32S,33R,34R,36R,38S,41S,42R,43R,53S)-42, 53-dihydroxy-40-[3-hydroxy-2-(hydroxymethyl)propoxy]-41-[(1S)-2-[(1S,3R, 4R)-4-hydroxy-3-methoxy-cyclohexyl]-1-methyl-ethyl]-43-methoxy-31,32,33,34,44,45-hexamethyl-65, 66-dioxa-54-azatricyclohexatriaconta-21,23,25(44),26(45)-tetraene-46,47,48,49,50-pentone], the IC50 is 0.1 to 1 nM in series [1] and not below 100 nM in series [2]. The “mTORC1 selective @ 24 hrs” value in series [3] was “YES”. Also, the solubility in series [4] is more than 60 µM.
As to `CO[C@@H]1C[C@H](C[C@@H](C)[C@@H]2CC(=O)[C@H](C)/C=C(\C)[C@@H](O)[C@@H](OC)C(=O)[C@H](C)C[C@H](C)/C=C/C=C/C=C(\C)C(OCCOCCOCCO)C[C@@H]3CC[C@@H](C)[C@@](O)(O3)C(=O)C(=O)N3CCCC[C@H]3C(=O)O2)CC[C@H]1OCCO` (stereo partly drawn) [I-32, (21E,23E,25E,26E,36R,37S,38R,39R,40S,43S,45S,47R,48R,57R)-47, 57-dihydroxy-44-[2-[2-(2-hydroxyethoxy)ethoxy]ethoxy]-45-[(1R)-2-[(1S,2R, 3R)-3-(2-hydroxyethoxy)-2-methoxy-cyclohexyl]-1-methyl-ethyl]-48-methoxy-36,37,38,39,49,50-hexamethyl-68, 69-dioxa-58-azatricyclohexatriaconta-21,23,25(49),26(50)-tetraene-51,52,53,54,55-pentone], the IC50 in series [1] was 0.1 to 1 nM; in series [2], not below 100 nM. For the same compound, in series [3], the “mTORC1 selective @ 24 hrs” value is “YES”. In series [4], the solubility is more than 60 µM.
Turning to `CO[C@@H]1C[C@H](C[C@@H](C)[C@@H]2CC(=O)[C@H](C)/C=C(\C)[C@@H](O)[C@@H](OC)C(=O)[C@H](C)C[C@H](C)/C=C/C=C/C=C(\C)C(OCCOCCOCCOCCOCCOCCO)C[C@@H]3CC[C@@H](C)[C@@](O)(O3)C(=O)C(=O)N3CCCC[C@H]3C(=O)O2)CC[C@H]1O` (stereo partly drawn) [I-33, (21E,23E,25E,26E,40R,41S,42R,43R,45R,47S,50S,51R,52R, 61S)-51,6I-dihydroxy-49-[2-[2-[2-[2-[2-(2-hydroxyethoxy)ethoxy]ethoxy]ethoxy]ethoxy]ethoxy]-50-[(1S)-2-[(1S, 3R,4R)-4-hydroxy-3-methoxy-cyclohexyl]-1-methyl-ethyl]-52-methoxy-40, 41,42,43,53,54-hexamethyl-72,73-dioxa-62-azatricyclohexatriaconta-21, 23,25(53),26(54)-tetraene-55,56,57,58,59-pentone], the results for the IC50 in series [1] and in series [2] were 1 to 10 nM and not below 100 nM, respectively. In addition, the “mTORC1 selective @ 24 hrs” value in series [3] is “YES”. In series [4], this compound returned a solubility of more than 60 µM.
For the compound `CO[C@@H]1C[C@H](C[C@@H](C)[C@@H]2CC(=O)[C@H](C)/C=C(\C)[C@@H](O)[C@@H](OC)C(=O)[C@H](C)C[C@H](C)/C=C/C=C/C=C(\C)C(OCCCO)C[C@@H]3CC[C@@H](C)[C@@](O)(O3)C(=O)C(=O)N3CCCC[C@H]3C(=O)O2)CC[C@H]1O` (some centres unmarked) [I-34], the IC50 was 0.1 to 1 nM in series [1] and not below 100 nM in series [2]. Also, the “mTORC1 selective @ 24 hrs” value in series [3] is on record as “NO”. For the same compound, the solubility in series [4] fell in the range of 30 to 60 µM (≈ 28.7 to 57.5 µg/mL).
Regarding `CO[C@@H]1C[C@H](C[C@@H](C)[C@@H]2CC(=O)[C@H](C)/C=C(\C)[C@@H](O)[C@@H](OC)C(=O)[C@H](C)C[C@H](C)/C=C/C=C/C=C(\C)C(OCCOCCO)C[C@@H]3CC[C@@H](C)[C@@](O)(O3)C(=O)C(=O)N3CCCC[C@H]3C(=O)O2)CC[C@H]1O` (some centres unmarked) [I-37], the IC50 in series [1] is 1 to 10 nM; in series [2] it was not below 100 nM. The “mTORC1 selective @ 24 hrs” value in series [3] is “YES”. Also, the solubility in series [4] was 30 to 60 µM (≈ 29.6 to 59.3 µg/mL).
Regarding `CO[C@@H]1C[C@H](C[C@@H](C)[C@@H]2CC(=O)[C@H](C)/C=C(\C)[C@@H](O)[C@@H](OC)C(=O)[C@H](C)C[C@H](C)/C=C/C=C/C=C(\C)C(OCCO)C[C@@H]3CC[C@@H](C)[C@@](O)(O3)C(=O)C(=O)N3CCCC[C@H]3C(=O)O2)CC[C@H]1O` (stereo partly drawn) [I-38, (21E,23E,25E,26E,30R,31S,32R,33R,35R,37S,40S,41R,42R,51S)-41, 51-dihydroxy-39-(2-hydroxyethoxy)-40-[(1S)-2-[(1S,3R,4R)-4-hydroxy-3-methoxy-cyclohexyl]-1-methyl-ethyl]-42-methoxy-30, 31,32,33,43,44-hexamethyl-62,63-dioxa-52-azatricyclohexatriaconta-21, 23,25(43),26(44)-tetraene-45,46,47,48,49-pentone], the results for the IC50 in series [1] and in series [2] were less than 0.1 nM and not below 100 nM, respectively. For the same compound, the “mTORC1 selective @ 24 hrs” value in series [3] is recorded as “NO”. In series [4], this compound yielded a solubility of 30 to 60 µM (≈ 28.3 to 56.7 µg/mL).
As for `CO[C@@H]1C[C@H](C[C@@H](C)[C@@H]2CC(=O)[C@H](C)/C=C(\C)[C@@H](O)[C@@H](OC)C(=O)[C@H](C)C[C@H](C)/C=C/C=C/C=C(\C)C(OCCS(=O)(=O)CCS(=O)(=O)CCO)C[C@@H]3CC[C@@H](C)[C@@](O)(O3)C(=O)C(=O)N3CCCC[C@H]3C(=O)O2)CC[C@H]1O` (stereo partly drawn) [I-102, (21E,23E,25E,26E,34R,35S,36R,37R,39R,41S,44S,45R,46R,55S)-45, 55-dihydroxy-43-[2-[2-(2-hydroxyethylsulfonyl)ethylsulfonyl]ethoxy]-44-[(1S)-2-[(1S,3R, 4R)-4-hydroxy-3-methoxy-cyclohexyl]-1-methyl-ethyl]-46-methoxy-34,35,36,37,47,48-hexamethyl-70, 71-dioxa-56-azatricyclohexatriaconta-21,23,25(47),26(48)-tetraene-49,50,51,52,53-pentone], in series [1], the IC50 is 10 to 100 nM. Further, in series [3], the “mTORC1 selective @ 24 hrs” value is on record as “YES”. Besides, the “inhibition of the mTORC1 pathway” value in series [5] is “strong inhibition”. Besides, the “inhibition of mTORC2 (Akt phosphorylation)” value in series [6] was “do not inhibit”. For the same compound, the “inhibition of 4E-BP1 phosphorylation” value in series [7] is “no inhibition”.
